# Test results: patent US9834542B2, “LXR modulators” (BRISTOL-MYERS SQUIBB COMPANY, priority 2013, dated 2017)
# Target: T1, LXRβ (Homo sapiens, UniProt P55055)
# T1 construct: Co-transfection expression plasmids, comprising full-length LXRα (pCMX-h LXRα[…] or LXRβ (pCMX-hLXRβ)); expressed in transfected cells; host or cells: CV-1 African Green Monkey Kidney Cells
# T1 sequence (P55055 1-460): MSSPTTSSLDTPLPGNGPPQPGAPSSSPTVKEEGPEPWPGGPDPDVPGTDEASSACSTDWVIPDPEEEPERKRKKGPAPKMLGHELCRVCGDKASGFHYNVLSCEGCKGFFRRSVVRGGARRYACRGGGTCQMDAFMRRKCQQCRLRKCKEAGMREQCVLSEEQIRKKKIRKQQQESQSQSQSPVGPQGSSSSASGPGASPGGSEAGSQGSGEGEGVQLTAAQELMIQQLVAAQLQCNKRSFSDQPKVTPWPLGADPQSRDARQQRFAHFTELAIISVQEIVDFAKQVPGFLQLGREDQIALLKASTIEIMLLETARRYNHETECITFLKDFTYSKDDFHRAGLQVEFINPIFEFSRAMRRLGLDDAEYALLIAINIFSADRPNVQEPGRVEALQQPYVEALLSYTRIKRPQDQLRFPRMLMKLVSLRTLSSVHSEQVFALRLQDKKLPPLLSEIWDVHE
# T1 sequence (P19793 1-462 partner): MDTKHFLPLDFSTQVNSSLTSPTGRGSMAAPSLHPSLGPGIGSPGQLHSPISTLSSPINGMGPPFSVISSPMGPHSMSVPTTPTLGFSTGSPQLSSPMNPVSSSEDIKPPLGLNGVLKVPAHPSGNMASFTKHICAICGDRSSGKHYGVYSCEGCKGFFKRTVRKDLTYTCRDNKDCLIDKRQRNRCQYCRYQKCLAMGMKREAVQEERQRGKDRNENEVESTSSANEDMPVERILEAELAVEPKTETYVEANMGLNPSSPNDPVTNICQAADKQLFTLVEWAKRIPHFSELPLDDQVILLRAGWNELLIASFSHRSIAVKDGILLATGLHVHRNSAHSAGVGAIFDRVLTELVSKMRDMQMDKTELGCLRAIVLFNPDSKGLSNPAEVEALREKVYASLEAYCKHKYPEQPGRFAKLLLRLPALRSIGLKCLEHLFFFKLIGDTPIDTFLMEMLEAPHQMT
# Assay: Co-transfection assay (LXRE luciferase reporter), LXRβ
# Type: cell-based
# Details: for EC50: CV-1 cells transfected with pCMX-hLXRβ and LXREx1-Tk-Luciferase, 20 hours incubation; for Emax: LXRβ co-transfection, relative to high control 1-(2,4-difluorobenzyl)-2-oxo-6-(4-phenoxyphenyl)-4-(trifluoromethyl)-1,2-dihydropyridine-3-carbonitrile, read-out: % Efficacy
# Procedure, shortened: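 Luciferase signal from an LXREx1-Tk reporter was measured after transfected CV-1 cells (full-length hLXRβ, endogenous RXR) were treated with compounds for 20 h at 37 °C, ≤0.5% DMSO. EC50 came from four-parameter fits of 11-point ½-log curves; % efficacy versus a reference agonist maximum.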
EC50 [nM],Emax [%],SMILES
2050,24,"Cc1nc(C(F)F)c(C)n1-c1ccc(-c2cccc(S(C)(=O)=O)c2)cc1-n1nncc1-c1ccc(Cl)cc1 [Example 230, 5-(4-chlorophenyl)-1-(4-(4-(difluoromethyl)-2,5-dimethyl-1H-imidazol-1-yl)-3′-(methylsulfonyl)-[1,1′-biphenyl]-3-yl)-1H-1,2,3-triazole]"
90,100,"Cc1nc(-c2ccc(Cl)cc2Cl)c(-c2cc(-c3cccc(S(C)(=O)=O)c3)ccc2-n2cc(C(F)(F)F)nc2C)o1 [Example 608, 4-(2,4-dichlorophenyl)-2-methyl-5-(4-(2-methyl-4-(trifluoromethyl)-1H-imidazol-1-yl)-3′-(methylsulfonyl)-[1,1′-biphenyl]-3-yl)oxazole]"
599,79,"Cc1nc(C(C)(F)F)cn1-c1ccc(-c2cc(F)c(CO)c(S(C)(=O)=O)c2)cc1-c1ocnc1-c1ccc(OC(F)(F)F)cc1 [Example 356, (4′-(4-(1,1-difluoroethyl)-2-methyl-1H-imidazol-1-yl)-3-fluoro-5-(methylsulfonyl)-3′-(4-(4-(trifluoromethoxy)phenyl)oxazol-5-yl)biphenyl-4-yl)methanol]"
2270,85,"Cc1nc(C(=O)C(C)C)cn1-c1ccc(-c2cc(F)c(CO)c(S(C)(=O)=O)c2)cc1-n1nncc1-c1ccc(OC(F)(F)F)cc1 [Example 235, 1-(1-(3′-fluoro-4′-(hydroxymethyl)-5′-(methylsulfonyl)-3-(5-(4-(trifluoromethoxy)phenyl)-1H-1,2,3-triazol-1-yl)-[1,1′-biphenyl]-4-yl)-2-methyl-1H-imidazol-4-yl)-2-methylpropan-1-one]"
529,116,"Cc1nc(C(F)(F)F)cn1-c1ccc(-c2cccc(S(C)(=O)=O)c2)cc1-n1nncc1-c1cccc(C(F)(F)F)c1 [Example 25, 1-{3′-(methylsulfonyl)-4-[2-methyl-4-(trifluoromethyl)-1H-imidazol-1-yl]biphenyl-3-yl}-5-[3-(trifluoromethyl)phenyl]-1H-1,2,3-triazole]"
643,66,"Cc1nc(C(C)(F)F)cn1-c1ccc(-c2cccc(S(C)(=O)=O)c2)cc1-n1nncc1-c1ccc(OC(F)(F)F)cc1 [Example 165, 1-{4-[4-(1,1-difluoroethyl)-2-methyl-1H-imidazol-1-yl]-3′-(methylsulfonyl)biphenyl-3-yl}-5-{4-[(trifluoromethyl)oxy]phenyl}-1H-1,2,3-triazole]"
48,116,"Cc1nc(-c2cc(-c3cc(F)c(CO)c(S(C)(=O)=O)c3)ccc2-n2cc(C(F)(F)F)nc2C)c(-c2ccc(OC(F)F)cc2)o1 [Example 496, (3′-(5-(4-(difluoromethoxy)phenyl)-2-methyloxazol-4-yl)-3-fluoro-4′-(2-methyl-4-(trifluoromethyl)-1H-imidazol-1-yl)-5-(methylsulfonyl)biphenyl-4-yl)methanol]"
606,48,"Cc1nc(C(C)(F)F)cn1-c1ccc(-c2cccc(S(C)(=O)=O)c2)cc1-n1nncc1-c1ccc(Cl)cc1Cl [Example 180, 5-(2,4-dichlorophenyl)-1-{4-[4-(1,1-difluoroethyl)-2-methyl-1H-imidazol-1-yl]-3′-(methylsulfonyl)biphenyl-3-yl}-1H-1,2,3-triazole]"
32,55,"Cc1nc(-c2cc(-c3cc(F)c(CO)c(S(C)(=O)=O)c3)ccc2-n2cc(C(F)(F)F)nc2C)c(-c2ccc(Cl)cc2F)o1 [Example 485, (3′-(5-(4-chloro-2-fluorophenyl)-2-methyloxazol-4-yl)-3-fluoro-4′-(2-methyl-4-(trifluoromethyl)-1H-imidazol-1-yl)-5-(methylsulfonyl)biphenyl-4-yl)methanol]"
405,111,"Cc1nc(C(F)(F)F)cn1-c1ccc(-c2cccc(C(C)(C)C(N)=O)c2)cc1-c1cnnn1-c1ccc(OC(F)(F)F)cc1 [Example 241, 2-methyl-2-{4′-[2-methyl-4-(trifluoromethyl)-1H-imidazol-1-yl]-3′-(1-{4-[(trifluoromethyl)oxy]phenyl}-1H-1,2,3-triazol-5-yl)biphenyl-3-yl}propanamide]"
241,68,"Cc1nc(C(F)(F)F)cn1-c1c(Cl)cc(-c2cc(F)c(CO)c(S(C)(=O)=O)c2)cc1-n1nncc1-c1ccc(OC(F)(F)F)cc1 [Example 196, [3′-chloro-3-fluoro-5-(methylsulfonyl)-4′-[2-methyl-4-(trifluoromethyl)-1H-imidazol-1-yl]-5′-(5-{4-[(trifluoromethyl)oxy]phenyl}-1H-1,2,3-triazol-1-yl)biphenyl-4-yl]methanol]"
46,92,"Cc1nc(-c2ccc(OC(F)(F)F)cc2)c(-c2cc(-c3ccc(CO)c(S(C)(=O)=O)c3)ccc2-n2cc(C(F)(F)F)nc2C)o1 [Example 607, (3′-(2-methyl-4-(4-(trifluoromethoxy)phenyl)oxazol-5-yl)-4′-(2-methyl-4-(trifluoromethyl)-1H-imidazol-1-yl)-3-(methylsulfonyl)-[1,1′-biphenyl]-4-yl)methanol]"
183,57,"Cc1nc(-c2cc(-c3cccc(S(C)(=O)=O)c3)ccc2-n2cc(C(F)(F)F)nc2C)c(-c2cc(F)cc(Cl)c2)o1 [Example 449, 5-(3-chloro-5-fluorophenyl)-2-methyl-4-(4-(2-methyl-4-(trifluoromethyl)-1H-imidazol-1-yl)-3′-(methylsulfonyl)biphenyl-3-yl)oxazole]"
48,57,"Cc1nc(-c2cc(-c3cccc(S(C)(=O)=O)c3)ccc2-n2cc(C(F)(F)F)nc2C)c(-c2ccc(Cl)cc2F)o1 [Example 484, 5-(4-chloro-2-fluorophenyl)-2-methyl-4-(4-(2-methyl-4-(trifluoromethyl)-1H-imidazol-1-yl)-3′-(methylsulfonyl)biphenyl-3-yl)oxazole]"
54,66,"Cc1nc(C(F)(F)F)cn1-c1ccc(-c2cc(F)c(CO)c(S(C)(=O)=O)c2)cc1-c1nc(C(C)C)oc1-c1ccc2c(c1)OC(F)(F)O2 [Example 481, (3′-(5-(2,2-difluorobenzo[d][1,3]dioxol-5-yl)-2-isopropyloxazol-4-yl)-3-fluoro-4′-(2-methyl-4-(trifluoromethyl)-1H-imidazol-1-yl)-5-(methylsulfonyl)biphenyl-4-yl)methanol]"
82,86,"Cc1nc(-c2cc(-c3cc(F)c(CO)c(S(C)(=O)=O)c3)ccc2-n2cc(C(F)(F)F)nc2C)c(-c2ccc3c(c2)CC(C)(C)O3)o1 [Example 420, (3′-(5-(2,2-dimethyl-2,3-dihydrobenzofuran-5-yl)-2-methyloxazol-4-yl)-3-fluoro-4′-(2-methyl-4-(trifluoromethyl)-1H-imidazol-1-yl)-5-(methylsulfonyl)biphenyl-4-yl)methanol]"
1060,43,"COc1ccc(-c2cnnn2-c2cc(-c3cccc(S(C)(=O)=O)c3)ccc2-n2cc(C(F)(F)F)nc2C)cc1OC(F)F [Example 42, 5-{3-[(difluoromethyl)oxy]-4-(methyloxy)phenyl}-1-{3′-(methylsulfonyl)-4-[2-methyl-4-(trifluoromethyl)-1H-imidazol-1-yl]biphenyl-3-yl}-1H-1,2,3-triazole]"
164,105,"Cc1nc(C(F)(F)F)cn1-c1ccc(-c2cccc(S(C)(=O)=O)c2)cc1-n1nncc1-c1ccc(OC(F)(F)F)cc1 [Example 49, 1-{3′-(methylsulfonyl)-4-[2-methyl-4-(trifluoromethyl)-1H-imidazol-1-yl]biphenyl-3-yl}-5-{4-[(trifluoromethyl)oxy]phenyl}-1H-1,2,3-triazole]"
192,43,"Cc1nc(-c2cc(-c3cccc(S(C)(=O)=O)c3)ccc2-n2cc(C(F)(F)F)nc2C)c(-c2cc(Cl)cc(Cl)c2)o1 [Example 455, 5-(3,5-dichlorophenyl)-2-methyl-4-(4-(2-methyl-4-(trifluoromethyl)-1H-imidazol-1-yl)-3′-(methylsulfonyl)biphenyl-3-yl)oxazole]"
